Earlier results on three compounds are cited in patent US20240390363A1, “GRANULES CONTAINING POSACONAZOLE” (ALFRED E. TIEFENBACHER (GMBH & CO. KG), priority 2021, published 2024).

SMILES strings stand for the structures.

For series [1] the following is noted: forms compared with form I.
For series [2] the following is noted: storage or stress conditions; form IV: aqueous suspension.

In the case of `CC[C@@H]([C@H](C)O)n1ncn(-c2ccc(N3CCN(c4ccc(OC[C@@H]5CO[C@@](Cn6cncn6)(c6ccc(F)cc6F)C5)cc4)CC3)cc2)c1=O` [Posaconazole], the “Aqueous / water solubility” value in series [1] is given as “low aqueous solubility”.
Take `CC[C@@H]([C@H](C)O)n1ncn(-c2ccc(N3CCN(c4ccc(OC[C@@H]5CO[C@@](Cn6cncn6)(c6ccc(F)cc6F)C5)cc4)CC3)cc2)c1=O` [form Y, posaconazole]: the “Aqueous / water solubility” value in series [1] was “better water solubility”. Also, the “Stability of the crystalline form” value in series [2] is “as stable as form I”.
Turning to `CC[C@@H]([C@H](C)O)n1ncn(-c2ccc(N3CCN(c4ccc(OC[C@@H]5CO[C@@](Cn6cncn6)(c6ccc(F)cc6F)C5)cc4)CC3)cc2)c1=O` [form IV, posaconazole], in series [1], the “Aqueous / water solubility” value is “better water solubility”. Further, the “Stability of the crystalline form” value in series [2] was “better stability in an aqueous suspension”.
